Data from patent US12533427B2, “Radioactive antitumor agent” (National Institutes for Quantum Science and Technology, priority 2017, dated 2026).

Assays:
[1] = Measurement of biochemical parameters (liver and renal function) in non-tumor-bearing mice; format: in vivo, mouse; settings: any administration group; plasma, day 49
Description: (§1) In each of the following evaluations, data were presented as mean value±standard deviation. Two-way analysis of variance was used in the significant difference test of the data, excluding the survival curve. A Log-rank test was used for the data of the survival curve. Significant levels used were all 5%.
To evaluate side effects, biochemical parameters were measured using non-tumor-bearing mice (n=5/group) treated in a manner similar to the tumor-bearing mice described above.
The measurements of biochemical parameters were performed by measuring amounts of glutamate pyruvate transaminase and alkaline phosphatase for liver function and amounts of urea nitrogen and creatinine for renal function using mouse plasma prepared from blood collected from heart on day 49 after the first administration of ^64Cu-ATSM, with a blood biochemical analyzer (FUJI DRI-CHEM 7000VZ, manufactured by FUJIFILM Corporation).

[2] = Body weight change of U87MG tumor-bearing mice; format: in vivo, BALB/c nude mouse
Description: (§2) The tumor-bearing mice were randomized into […] (n=7/group), and were intravenously administered with different single doses of ^64Cu-ATSM with 18.5, 37, 74, 111 and 148 MBq, and physiological saline as a control, respectively. To the remaining one group, ^64Cu-ATSM was administered intravenously at a dose of 37 MBq on days 0, 7, 21 and 28 of four times in total (37 MBq×4).
as §1
(§3) After the start of the study, mice were weighed twice a week over time, and the size of the tumor was measured with a caliper. The tumor volume was calculated with the formula: tumor volume=length×width^2×π/6, and the tumor volume on each day was expressed as a percentage relative to the initial tumor volume on day 0.

[3] = system: U87MG cells from human glioblastoma; assay: Survival curve for 80 days of U87MG tumor-bearing mice; format: in vivo, BALB/c nude mouse
Description: (§4) U87MG cells from human glioblastoma were purchased from ATCC, and utilized after growing. A U87MG tumor-bearing model was made by implanting 1×10^7 U87MG cells subcutaneously into the flanks of BALB/c nude mouse (male, 6 weeks old, weighing approximately 20 to 25 g, obtained from Japan SLC). The tumor-bearing mice were subjected to tests when the tumor diameter reached around 5 mm after transplantation of U87MG cells.
as §2, §1
After the start of the study, the mice were slaughtered at the time when the tumor volume reached the humanitarian endpoint. Survivability for 80 days was observed, and the survival rate was calculated.

[4] = system: U87MG cells from human glioblastoma; assay: Tumor growth in U87MG tumor-bearing mouse; format: in vivo, BALB/c nude mouse; settings: for rate of tumor volume ratio to tumor volume ratio of the control group on day 39: single i.v. administration
Description: as §4, §2, §1, §3

[5] = Internal exposure dose estimate for human
Description: Meanwhile, the internal exposure dose with ^64Cu-ATSM was maximum in the liver, and was 0.108 mSv/MBq. This means that when 150 MBq/kg of ^64Cu-ATSM is administered to a human weighing 60 kg, the exposure dose is 16.2 mGy/kg for the liver and 972 mSv for the whole body. When this exposure dose is applied to normal radiotherapy, it corresponds to an exposure equal to single irradiation of 1.215 Gy, which is lower than the single irradiation dose (1.8 to 2.0 Gy) of normal split irradiation in radiotherapy. Also, when 450 MBq/kg is administered to a human weighing 60 kg, the exposure dose is 48.6 mGy/kg for the liver and 2,916 mSv for the whole body. Since the tolerance dose of the liver in normal split irradiation is 30 Gy as a dose that causes side effects in 5% in 5 years, the total dose when administered a total of four times during normal radiotherapy of about 3 Gy will be 11.66 Gy, which is lower than the tolerance dose of the liver described above.
The present inventors have also reported estimates of irradiation doses of ^64Cu-ATSM for human based on in vivo distribution in normal mouse tissue (see, Yoshii Y, Furukawa T, Matsumoto H, Yoshimoto M, Kiyono Y, Zhang M R, Fujibayashi Y, and Saga T (2016) Cu-ATSM therapy targets regions with activated DNA repair and enrichment of CD133 cells in an HT-29 tumor model: Sensitization with a nucleic acid antimetabolite. Cancer Lett 376: 74-82 and Yoshii Y, Matsumoto H, Yoshimoto M, Furukawa T, Morokoshi Y, Sogawa C, Zhang M R, Wakizaka H, Yoshii H, Fujibayashi Y, and Saga T (2014) Controlled administration of penicillamine reduces radiation exposure in critical organs during ^64Cu-ATSM internal radiotherapy: a novel strategy for liver protection. PloS one 9: e86996). […] Thus, doses in the multiple administration of ^64Cu-ATSM to human according to the present invention can be determined as appropriate based on data of therapeutic effect and toxicity in mouse in the present invention. PET imaging of ^64Cu-ATSM may also be performed to monitor the irradiation dose of tumors and tissues during ^64Cu-ATSM therapy for human according to the present invention, thereby enabling theranostics of cancer.

[6] = therapeutic dose calculated from 37 MBq per mouse; cited from earlier work
[7] = system: CD133-positive cells in tumors; settings: Non-Patent Literatures 3 and 4; cited from earlier work
[8] = Measurement of hematological parameters in non-tumor-bearing mice; format: in vivo, mouse
Description: as §1
To evaluate side effects, hematological parameters were measured using non-tumor-bearing mice (n=5/group) treated in a manner similar to the tumor-bearing mice described above.
The measurement of hematological parameters was performed by measuring concentrations of white blood cells, red blood cells and platelets using blood collected from the vein at the start point (day 0) immediately before administration of ^64Cu-ATSM and on days 2, 7, 14, 21, 28, 35, 42 and 49 after administration of ^64Cu-ATSM, with a blood analyzer (Celltac MEK-6458, manufactured by NIHON KOHDEN CORPORATION).

[9] = system: CD133-positive cells; settings: Non-Patent Literature 2; cited from earlier work
[10] = system: glioblastoma showing high HIF-1α expression; settings: clinical PET investigations; cited from earlier work
[11] = 37 MBq four-time administration (37 MBq×4)
[12] = 111 and 148 MBq single administration
[13] = 150 MBq/kg to a human weighing 60 kg
[14] = 450 MBq/kg to a human weighing 60 kg

**Q.** With “radioactive diacetyl-bis(N4-methylthiosemicarbazone) copper complex [^64Cu-ATSM]” as the substance, how does the “alkaline phosphatase (ALP) compared to control” value [1] read?
**A.** no significant differences

**Q.** And the “blood urea nitrogen (BUN) compared to control” value [1]?
**A.** no significant differences

**Q.** What about the “creatinine (CRE) compared to control” value [1] of the same substance?
**A.** no significant differences

**Q.** And the “glutamate pyruvate transaminase (GPT) compared to control” value [1]?
**A.** no significant differences

**Q.** What about the body weight loss [2, 11] of the same substance?
**A.** No body weight loss was observed

**Q.** What about the “recovery of body weight” value [2, 12] of the same substance?
**A.** returned to normal body weight by day 14

**Q.** What about the “body weight compared to the control group” value ([2]; 111 and 148 MBq single administration, day 7) of the same substance?
**A.** significantly reduced

**Q.** And the “survival rate compared to the control group” value ([3]; 37, 74, 111 and 148 MBq single administration groups and 37 MBq×4 group, 80 days)?
**A.** higher than that of the control group

**Q.** What about the “survival time compared to the 111 MBq single administration group” value [3, 11] of the same substance?
**A.** longer survival time than the 111 MBq single administration group, but no significant difference

**Q.** What about the “life-extending effect compared to the control group, single administration groups” value ([3]; 111 MBq single administration) of the same substance?
**A.** significant life-extending effect

**Q.** What about the “survival effect among the single administration groups” value ([3]; 111 MBq single administration) of the same substance?
**A.** highest survival effect

**Q.** And the “survival time compared to the 18.5, 37, 74 and 148 MBq single administration groups” value ([3]; 111 MBq single administration group and 37 MBq×4 group)?
**A.** significantly longer survival time

**Q.** And the “tumor growth compared to the control group” value ([4]; 37 MBq four times (37 MBq×4))?
**A.** significantly greater inhibition effect of tumor growth

**Q.** What about the “mice with tumors nearly invisible on day 39” value ([4]; 37 MBq four-time administration (37 MBq×4), day 39) of the same substance?
**A.** 6 cases among 7 mice

**Q.** What about the “rate of tumor volume ratio to that of the control group on day 39” value ([4]; 37 MBq four-time administration (37 MBq×4; days 0, 7, 21, 28), i.v., day 39) of the same substance?
**A.** 0.04

**Q.** What about the “rate of tumor volume ratio to tumor volume ratio of the control group on day 39” value ([4]; fifth of five printed values, 148 MBq, day 39) of the same substance?
**A.** 0.14

**Q.** What about the “rate of tumor volume ratio to tumor volume ratio of the control group on day 39” value ([4]; first of five printed values, presumably 18.5 MBq, day 39) of the same substance?
**A.** 0.82

**Q.** And the “rate of tumor volume ratio to tumor volume ratio of the control group on day 39” value ([4]; fourth of five printed values, presumably 111 MBq, day 39)?
**A.** 0.14

**Q.** What about the “rate of tumor volume ratio to tumor volume ratio of the control group on day 39” value ([4]; second of five printed values, presumably 37 MBq, day 39) of the same substance?
**A.** 0.31

**Q.** And the “dose dependence of antitumor effect” value ([4]; single administration 18.5-148 MBq)?
**A.** dose-dependent antitumor effect, showing a plateau at 111 MBq

**Q.** And the “tumor growth compared to the control group” value ([4]; single administration at 37, 74, 111 and 148 MBq, 39 days)?
**A.** significantly inhibited tumor growth

**Q.** What about the “tumor growth compared to the control group” value ([4]; single administration of 18.5 MBq) of the same substance?
**A.** inhibited tumor growth compared to the control group, but showed no significant difference

**Q.** And the “rate of tumor volume ratio to tumor volume ratio of the control group on day 39” value ([4]; third of five printed values, presumably 74 MBq, day 39)?
**A.** 0.28

**Q.** And the “exposure dose for the liver” value [5, 13]?
**A.** 16.2 mGy/kg

**Q.** And the “exposure dose for the whole body” value [5, 13]?
**A.** 972 mSv

**Q.** What about the “exposure equal to single irradiation of normal radiotherapy” value [5, 13] of the same substance?
**A.** 1.215 Gy

**Q.** What about the “exposure dose for the liver” value [5, 14] of the same substance?
**A.** 48.6 mGy/kg

**Q.** What about the “exposure dose for the whole body” value [5, 14] of the same substance?
**A.** 2,916 mSv

**Q.** What about the “total dose when administered a total of four times” value ([5]; 450 MBq/kg to a human weighing 60 kg, four times) of the same substance?
**A.** 11.66 Gy

**Q.** What about the “internal exposure dose, liver (maximum organ)” value ([5]; liver) of the same substance?
**A.** 0.108 mSv/MBq

**Q.** What about the “estimated irradiation doses to liver, red bone marrow and ovary in human” value [6] of the same substance?
**A.** lower than the acceptable dose

**Q.** And the “effect on CD133-positive cells in tumors” value [7]?
**A.** reduce CD133-positive cells in tumors

**Q.** What about the hematological toxicity ([8]; 37 MBq four-time administration (37 MBq×4), throughout the study period) of the same substance?
**A.** no symptoms of hematological toxicity were observed

**Q.** What about the “recovery of number of white blood cells” value ([8]; 74, 111 and 148 MBq single administration) of the same substance?
**A.** recovered to normal on day 21

**Q.** And the “number of white blood cells (WBC)” value ([8]; 74 and 111 MBq single administration, day 2)?
**A.** significant reductions

**Q.** What about the “number of platelets (PLT)” value ([8]; 111 MBq single administration, day 7) of the same substance?
**A.** significant reduction

**Q.** What about the “recovery of number of platelets” value [8, 12] of the same substance?
**A.** recovered to normal on day 14

**Q.** And the “number of white blood cells (WBC)” value ([8]; 111 and 148 MBq single administration, days 7 and 14)?
**A.** significant reductions

**Q.** What about the “recovery of number of red blood cells” value ([8]; 148 MBq single administration) of the same substance?
**A.** recovered to normal on day 14

**Q.** What about the “number of red blood cells (RBC)” value ([8]; 148 MBq single administration, day 7) of the same substance?
**A.** significant reduction

**Q.** And the “number of platelets (PLT)” value ([8]; 148 MBq single administration, days 2 and 7)?
**A.** significant reductions

**Q.** What about the accumulation in cells [9] of the same substance?
**A.** accumulates in CD133-positive cells

**Q.** And the “accumulation in tumor (PET)” value [10]?
**A.** accumulates in highly malignant grade glioblastoma showing high HIF-1α expression
